The values below come from the METLIN SMRT retention time set (Domingo-Almenara et al. 2019).

The nature of the data set: gradient 5% acetonitrile 3 min, to 50% in 2 min, to 85% in 15 min, held 3 min, 100 µL/min. The conditions noted are these: column: Zorbax Extend-C18 2.1 x 50 mm; eluents: water / acetonitrile, 0.1% formic acid. The procedure, abridged:
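Pure standards were run in mixtures of ~100 molecules by HPLC coupled to a quadrupole time-of-flight mass spectrometer. The column was a Zorbax Extend-C18 (2.1 × 50 mm, 1.8 μm) at 100 μL/min, with water and acetonitrile each containing 0.1% formic acid, in positive and negative ionization mode. Dead and dwell volumes were 40 μL and 900 μL. Retention time was taken from computationally picked adduct peaks, each manually inspected, with data collected over 3 months.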
`CCN1c2ccc(Cl)cc2C(=O)NC12CCN(C(=O)Nc1cccc(OC)c1)CC2` displayed an RP-LC retention time of 852 s.

`CC1=C(C(=O)N2CCOCC2)C(c2ccc(Br)cc2)C2=C(CC(C)(C)CC2=O)N1` (stereo not given) registered an RP-LC retention time of 723 s.

`O=C(Cn1cccc(-c2nc(-c3ccccc3)no2)c1=O)Nc1ccc(F)cc1F` showed an RP-LC retention time of 864 s.

For `C=C[C@H]1CN2CC[C@H]1C[C@@H]2[C@@H](O)c1ccnc2ccc(OC)cc12`, the RP-LC retention time was determined as 616 s.

In the case of `O=C(NCCS(=O)(=O)N1CCc2ccccc2C1)c1ccc([N+](=O)[O-])o1`, the RP-LC retention time amounted to 752 s.

For the compound `CCNC(=O)CCc1nc2ccccc2n(CC(=O)Nc2ccc(OC)c(OC)c2)c1=O`, the RP-LC retention time is 658 s.

For the compound `Cn1cccc1C(=O)C(=O)Nc1ccc(F)cc1Cl`, the RP-LC retention time stood at 1070 s.

`CCNc1ncnc2sc3c(c12)CCN(Cc1ccncc1)C3` returned an RP-LC retention time of 659 s.

With `COc1ccc(-c2nc3cccc(C)n3c2Nc2ccccc2C)cc1`, the RP-LC retention time is 773 s.

With `Fc1ccc(-n2cc(-c3noc(-c4ccccc4F)n3)nn2)cc1`, the RP-LC retention time is 1040 s.

`CC1=NN(c2cccc(C(=O)O)c2)C(=O)/C1=C\c1ccc(-c2ccc(Cl)c(C(=O)O)c2)o1` gave an RP-LC retention time of 1050 s.

Consider `O=C(NCc1ccccc1)C1CCc2nc(N3CCCCC3)ncc2C1` (stereo not given), for which the RP-LC retention time was determined as 720 s.

The compound `COc1ccc(NC(=O)CC2=C3CCCCC3NC2=O)cn1` (stereo not given) showed an RP-LC retention time of 640 s.

On to `CC(O)c1ccc(-c2ccc(CNCCCn3ccnc3)o2)cc1` (stereo not given), for which the RP-LC retention time was found to be 513 s.

Turning to `O=C(Cn1cnc2nc(N3CCCC(C(=O)NC4CC4)C3)sc2c1=O)NCc1ccccc1` (stereo not given), the RP-LC retention time was 646 s.

Compound `Cc1cccc(-c2ncccc2CNS(=O)(=O)c2cccc(C)c2)c1` gave an RP-LC retention time of 721 s.

In turn, `COCC(C)NC(=O)C(=O)NCc1cccs1` (stereo not given) came in with an RP-LC retention time of 658 s.

`CC1CCCCN1c1cc(-n2cnc(C(=O)Nc3ccc4c(c3)OCCO4)c2)ncn1` (stereo not given) had an RP-LC retention time of 1040 s.

In turn, `CCN1CCN(CCNC(=O)C2CCCN(S(=O)(=O)N(C)c3ccc(F)cc3)C2)CC1` (stereo not given) came in with an RP-LC retention time of 551 s.

As for `COc1ccc(Nc2c(-c3ccc(N(C)C)cc3)nc3cnccn23)cc1`, the RP-LC retention time turned out to be 740 s.

With `CN1C(=O)c2cccnc2Sc2cc(NC(=O)Cc3cccc(Cl)c3)ccc21`, the RP-LC retention time was determined as 831 s.

`CCCn1ccc2sc(C)c(C(=O)NC(C)C)c2c1=O` came in with an RP-LC retention time of 720 s.

Compound `Cc1oc(-c2cccc(Cl)c2)nc1CN1CCN(C(=O)NC2CCCC2)CC1` gave an RP-LC retention time of 690 s.

As for `O=C(Cc1cccs1)N1CCn2c(nnc2-c2ccccc2)C1`, the RP-LC retention time amounted to 679 s.

`Cc1cc(Nc2cc(N3CCN(C)CC3)nc(/C=C/c3ccccc3)n2)n[nH]1` yielded an RP-LC retention time of 625 s.

As to `Cc1cc(C)c(C)c(S(=O)(=O)N2CCC(F)(c3nc(CC(C)C)no3)CC2)c1C`, the RP-LC retention time is 1410 s.

Compound `CCCN(C(=O)C1CCC(C)CC1)c1nc(-c2ccccc2)cs1` (stereo not given) returned an RP-LC retention time of 748 s.

`Cc1nn(C)c(=O)c2cc(S(=O)(=O)NCc3ccc(Cl)cc3)cn12`: the RP-LC retention time came to 822 s.

As to `CSc1ccccc1CN1CCC(CNC(=O)C(=O)Nc2ccc3c(c2)OCO3)CC1`, the RP-LC retention time was 586 s.

Consider `COc1ccccc1Nc1c(-c2ccccc2)nc2cnccn12`, for which the RP-LC retention time was found to be 875 s.

`Cc1cc(C)c(C)c(S(=O)(=O)N2CCCC2c2nc(-c3ccc(F)cc3)no2)c1C` (stereo not given): the RP-LC retention time was 1310 s.

As to `CN(CC1CCOC1)C(=O)c1ccc(F)c(F)c1` (stereo not given), the RP-LC retention time worked out at 683 s.

Compound `O=C1CCCCC(C(=O)N2CCCCC2)N1` (stereo not given) showed an RP-LC retention time of 641 s.

`CC(C)Cc1ccc(S(=O)(=O)N2CCCC(CNC(=O)c3ccccc3)C2)cc1` (stereo not given) returned an RP-LC retention time of 1120 s.

As to `O=C(CN1C(=O)CCCc2cc(S(=O)(=O)N3CCCC3)ccc21)Nc1ccc(F)cc1Cl`, the RP-LC retention time worked out at 857 s.

In turn, `CCC(C)n1c(=O)c2ccccc2n(Cc2nc(-c3cccc(Br)c3)no2)c1=O` (stereo not given) showed an RP-LC retention time of 1290 s.

Compound `Cc1ccc(N2C(=O)C3N=NN(c4ccc(C)c(Cl)c4)C3C2=O)cc1F` (stereo not given) registered an RP-LC retention time of 836 s.

In turn, `Cc1cc([N+](=O)[O-])ccc1Nc1cccc(Cl)c1C` returned an RP-LC retention time of 1030 s.

The compound `Cc1ccc(CNC(=O)N2CCC(C(=O)NCc3csc(C)n3)CC2)cc1` yielded an RP-LC retention time of 661 s.

`Cc1cc(N2CCOCC2)nc(N2CCN(C(=O)c3ccccc3Br)CC2)n1` returned an RP-LC retention time of 612 s.

`CC(C)c1nncn1C1CCN(S(=O)(=O)c2ccc(C(F)(F)F)cc2)CC1` had an RP-LC retention time of 791 s.

Regarding `CCOCCOC(=O)C1=C(C)NC2=C(C(=O)CC(C)(C)C2)C1c1cccc(OC)c1OC` (stereo not given), the RP-LC retention time was 791 s.

Consider `CN(C(=O)Cn1nc(Cc2ccncc2)c2ccccc2c1=O)C1CCCCC1`, for which the RP-LC retention time worked out at 640 s.

`CC(C)n1c(=O)oc2cc(-c3noc(-c4ccc5cc[nH]c5c4)n3)ccc21` showed an RP-LC retention time of 1100 s.

`CCn1cc(-c2ccc(OC)cc2)cc1C(=O)N1CCCC1` came in with an RP-LC retention time of 952 s.

Compound `COC(=O)C1=CC(=O)N2CCN=C2S1` came in with an RP-LC retention time of 691 s.

In turn, `O=C(N[C@H]1C[C@@H]2C[C@H]1N(C(=O)c1ccccc1C(F)(F)F)C2)c1ccccc1` showed an RP-LC retention time of 778 s.

Regarding `Cc1cc(C)cc(Oc2nccn3c(=O)n(CC(=O)NC(C)(C)C)nc23)c1`, the RP-LC retention time was found to be 859 s.

`CCN1C(=O)c2cc(S(=O)(=O)Nc3ccc(Cl)cc3)ccc2Oc2cccnc21` gave an RP-LC retention time of 1050 s.

`COc1ccc(-c2nnc(COc3ccc(NC(=O)C4CCN(C(C)=O)CC4)cc3)o2)cc1` showed an RP-LC retention time of 703 s.

`CCC(=O)N1CCN(c2nc(C)cc(N3CCCC3)n2)CC1` displayed an RP-LC retention time of 604 s.

Regarding `Cc1nc2c(sc3nc(-c4ccccc4)ccc32)c(=O)n1CC(=O)NCc1ccccc1`, the RP-LC retention time came to 972 s.

Take `CN(C(=O)Cc1ccc(Cl)c(Cl)c1)C(CN1CCCC1)c1cccc(OCC(=O)O)c1` (stereo not given): the RP-LC retention time was 770 s.

As to `CCOc1ccc(-c2cc3c(=O)n(Cc4nc(-c5ccccc5OC)no4)ncn3n2)cc1`, the RP-LC retention time was 1050 s.

For `O=C(NCCc1ccccc1)C(=O)NCc1cccnc1`, the RP-LC retention time was determined as 567 s.

For `O=C(Cc1cccc(Cl)c1)Nc1ccsc1-c1nnc(C2CC2)o1`, the RP-LC retention time came to 1240 s.

As to `COc1ccc(OC)c(-c2csc(-c3nnn(-c4ccc(Cl)cc4)c3N)n2)c1`, the RP-LC retention time was 1200 s.

With `CCOc1ccc(NC(=O)Cn2nc(N3CCSCC3)c3ccccc3c2=O)cc1`, the RP-LC retention time amounted to 929 s.

The compound `O=C(NCc1ccc(F)cc1Cl)c1csc(C(=O)NC2CCCC2)n1` showed an RP-LC retention time of 968 s.

`O=C(C1CCCN(c2nnc3ccccn23)C1)N1CCN(c2ccccn2)CC1` (stereo not given) had an RP-LC retention time of 514 s.

Regarding `CN1CCc2nnc(C3CCCN3C(=O)Nc3ccc(Cl)cc3C(F)(F)F)n2CC1` (stereo not given), the RP-LC retention time came out at 594 s.

`COc1ccc(NC(=O)C2CCCN(c3nc4ccccc4nc3OC)C2)cc1OC` (stereo not given) had an RP-LC retention time of 982 s.

The compound `O=C(C1CCN(c2nc3ccc(-c4ccsc4)nc3s2)CC1)N1CCCCC1` came in with an RP-LC retention time of 911 s.

Turning to `O=C1CCCc2cc(S(=O)(=O)N3CCC(C(=O)NCc4ccccc4Cl)CC3)ccc2N1`, the RP-LC retention time came to 760 s.

`Cc1nnc(NC(=O)c2ccc3c(c2)OCO3)s1`: the RP-LC retention time is 646 s.

Compound `O=C(Nc1cccc(F)c1)C(=O)c1ccc[nH]1` came in with an RP-LC retention time of 846 s.

`Cc1cc(-c2nnc(-c3ccc(F)cc3)o2)c(C)n1CC(=O)NCc1cc(F)cc(F)c1` came in with an RP-LC retention time of 992 s.

`Cc1cccn2c(Nc3ccc4c(c3)OCCO4)c(-c3ccccc3O)nc12` registered an RP-LC retention time of 719 s.

`CCNC(=O)NCCc1cn(C)c2ncccc12` showed an RP-LC retention time of 556 s.

`Cc1oc(C(C)C)nc1C(=O)Nc1ccc(F)c(Cl)c1`: the RP-LC retention time is 1170 s.

Compound `Cc1ccc(-c2ncc(C(=O)Nc3ccc(Br)cc3)c(-c3ccncc3)n2)cc1` showed an RP-LC retention time of 994 s.

On to `NC(=O)c1ccc(NC(=O)C2CCN(c3cc(N4CCCCC4)ncn3)CC2)cc1`, for which the RP-LC retention time amounted to 595 s.

As for `CC1CCCCN1CCNC(=O)CN1CCc2ccccc2C1C(=O)N1CCCCC1` (stereo not given), the RP-LC retention time came out at 617 s.

Regarding `CCn1c(SCC(=O)Nc2ccccc2C(F)(F)F)nc2c(c1=O)SC(C)C2` (stereo not given), the RP-LC retention time stood at 854 s.

For `COCCNC(=O)[C@@H]1[C@H](c2cc(OC)c(OC)c(OC)c2)c2cc3c(cc2[C@H](O)[C@H]1CO)OCO3`, the RP-LC retention time worked out at 623 s.

Regarding `CCC(C)NC(=O)Cn1nc2c3sc(N(C)C)nc3ncn2c1=O` (stereo not given), the RP-LC retention time was found to be 1130 s.

For the compound `CCOC(=O)c1c(C)[nH]c(C(=O)N2CCC(CC(=O)NCc3ccc(F)cc3)CC2)c1C`, the RP-LC retention time stood at 780 s.

Regarding `CCOc1ccc(NC(=O)Cn2c(=O)cc(-c3nc(CC)no3)c3ccccc32)cc1`, the RP-LC retention time turned out to be 936 s.

`O=C(NCc1ccco1)c1ccccc1-c1nc(-c2ccccc2)no1` registered an RP-LC retention time of 888 s.

Compound `C[C@]12CC[C@H](O)CC1=CC[C@@H]1[C@@H]2CC[C@]2(C)c3[nH]ncc3C[C@@H]12` showed an RP-LC retention time of 796 s.
